Non-standard residues stand in square brackets, D forms with d. Residues, ends and D or L forms follow the SMILES beside them. pY = N[C@@H](Cc1ccc(OP(=O)(O)O)cc1)C(=O)O
Experiments:
[1] = target: α-phosphotyrosine antibody (α-pTyr 100); test: Titration of α-pY antibody on peptide microarrays; type: binding; conditions: peptide microarray, α-pY antibody 0.06 to 6.66 nM, 3 h at 4 °C, indirect immunofluorescence (Alexa633), bimolecular binding isotherm (Eq. 1); average ± standard deviation, six independent experiments
Description: (§1) Peptides that correspond to known interaction motifs involved in the formation of protein complexes in T cell signalling were purchased from EMC microcollections (Tübingen, Germany). All peptides carried an extra cysteine residue and a free N-terminus for immobilisation on the microarray substrates and a C-terminal amidation (see Electronic Supplementary Material (ESM), Table S1).
(§2) For generation of microarrays, peptide stock solutions (3 mM) in DMF were diluted 30 times with phosphate buffer (100 mM, pH 8) supplemented with 0.006 % (v/v) Triton X-100. N-Hydroxysuccinimide-preactivated slides served as substrates for immobilisation (Nexterion Slide H, Schott Nexterion/Peq-Lab, Erlangen, Germany) using a Nano-Plotter NP2.0 (GeSIM, Großerkmannshof, Germany), which employs piezo-driven pipetting tips to dispense peptide solutions. Microarray slides comprised 16 subarrays of doublets of each peptide. For each peptide, a volume of 1.2 nl was dispensed at a centre-to-centre spacing of 500 μm. During printing, temperature was maintained at 15 °C and air humidity at 65 %.
(§3) Sixteen incubation chambers with identical subarrays consisting of peptides derived from binding motifs of signalling proteins (see ESM Table S1) were generated by attaching a clip-on frame to the microarray substrate (ProPlate Multiarray System, Grace Biolabs, Molecular Probes, Eugene, OR, USA). The typical incubation volume for the subarrays was 50 μl. Microarrays were either incubated with an α-pY antibody (α-pTyr 100, 9411, Cell Signalling, Frankfurt am Main, Germany) at the indicated concentrations or co-incubated with cell lysate at the indicated concentrations for 3 h at 4 °C. Additionally, in another set of experiments, recombinant GRB2-SH2 was incubated on microarrays alone or co-incubated with cell lysate employing an α-penta HIS antibody (34600, Qiagen, Hilden, Germany) for the detection of His-tagged GRB2-SH2.
(§4) After incubation, microarrays were washed three times with washing buffer (PBS, 0.05 % (w/v) BSA, 0.05 % (w/v) Tween-20). For the detection of signals, microarrays were incubated with a secondary α-mouse antibody conjugated with Alexa633 (A-21050, Invitrogen) at a concentration of 1 μg/ml for 15 min at RT followed by a last washing step with washing buffer. Microarrays were dried with nitrogen and scanned using a ProScanArray (PerkinElmer Life Sciences, Waltham, Massachusetts), and the data were analysed using ArrayPro Analyzer software (Media Cybernetics, Silver Spring, USA) as described before. Final data represented the mean signal intensities corrected for the median of a ring-shaped local background surrounding the respective peptide spot. Titrations with α-pY antibody and GRB2-SH2 were performed to calculate dissociation constants (see below).
The resulting titration curves were fitted with Origin (OriginLab Corporation, v.6.1057, Northampton, USA) using a binding isotherm for a bimolecular interaction (Eq. 1):1 Fabs=Fmaxprot/Kd+prot Fabs represents the intensity of a microarray spot after background correction and [prot] the concentration of the titrated binder. Kd and Fmax were obtained from the fits.
To render this approach quantitative, first the affinities of the α-pY antibody towards the phosphotyrosine motifs of the microarrays were determined. […] The titration curves were fitted with a binding isotherm for a bimolecular interaction (Eq. 1, Fig. 2a, Table 1). In general, a coefficient of determination (R^2) of 0.8 was used as a cutoff in order to score a peptide as a binder. […] Regarding the poly-proline motif (PP) containing peptides present on the microarray, only on the peptide GAB2-509 in five experiments, a titration curve with an R^2 > 0.8 could be generated.

[2] = system: proteins in Jurkat cell lysate (total cellular proteome); test: Competition of α-pY antibody binding with Jurkat cell lysate on peptide microarrays; conditions: from EC50 and Kd α-pY by Cheng-Prusoff equation (Eq. 4); ± standard deviation
Description: as §1, §2
(§5) Jurkat T cell leukaemia cells were maintained in RPMI 1640 medium (PAN-Biotech, Aisenbach, Germany) supplemented with 10 % foetal calf serum at 37 °C in 5 % CO2. For the preparation of lysates, cells were resuspended in lysis buffer (1 % Triton X-100, 50 mM n-octyl-D-glucopyranoside (Fluka, Taufkirchen, Germany), 20 mM Tris, 1 mM EDTA, 150 mM NaCl, 1 mM Na3VO4, pH 7.5, and complete protease inhibitor cocktail (Roche Applied Science, Mannheim, Germany)). Incubation on ice for 1 h was followed by centrifugation at 20,000×g at 4 °C for 15 min to remove cell debris. Transmembrane proteins were extracted from lipid rafts by using N-octyl-D-glucopyranoside. Protein concentrations were measured by Bradford Assay.
as §3, §4
For determination of EC50 values for competition with cell lysate, curves were fitted according to2 y=y0+Ae^−x/t with y0 as the signal intensity of the α-pY antibody or the recombinant GRB2-SH2 domain without cell lysate, A the amplitude, x the protein concentration in lysate, and t the decay constant. […]

[3] = system: SH2 domain of GRB2 (GRB2-SH2); conditions: Kd values of GRB2-SH2 described in recently published manuscript; ref [14]; cited from earlier work
From the text: In contrast, the data points for LATpY191 and SHP1pY564, and SigpY437, ZAPpY319 and CDζpY72/83 were above or below the linear correlation defined by the first four peptides. […] SigpY437, in contrast, is a poor binder for which already low concent ...

[4] = system: proteins in Jurkat cell lysate (total cellular proteome); test: Competition of recombinant GRB2-SH2 binding with cell lysate on peptide microarrays
Description: as §5
The PCR product of the SH2 domain of GRB2 (GRB2-SH2) was cloned into the pET160/GW/D-TOPO vector (Invitrogen, Breda, The Netherlands), which contains a region encoding for a His-tag. The plasmid was used to perform a transformation into One Shot TOP10 competent cells (Invitrogen). […] The concentration of expressed protein was determined by photometric measurements at OD280. The concentration of GRB2-SH2 was determined in Western blots by quantitatively analysing obtained bands of purified GRB2-SH2 in an Odyssey Infrared Imaging System (Li-Cor Biosciences, Bad Homburg, Germany) in comparison with a bovine serum albumin (BSA) standard. […]

SMILES: CC[C@H](C)[C@H](NC(=O)[C@H](CCC(=O)O)NC(=O)[C@H](CCCNC(=N)N)NC(=O)[C@H](CCC(=O)O)NC(=O)[C@H](CCC(=O)O)NC(=O)CNC(=O)[C@@H](N)CS)C(=O)N[C@@H](CCC(N)=O)C(=O)N[C@@H](Cc1ccc(OP(=O)(O)O)cc1)C(=O)N[C@@H](C)C(=O)N1CCC[C@H]1C(=O)N[C@@H](CC(C)C)C(=O)N[C@@H](CO)C(=O)N[C@@H](Cc1ccccc1)C(=O)N[C@@H](Cc1c[nH]cn1)C(=O)N[C@@H](CCCCN)C(=O)NCC(N)=O [SigpY437] (H-CGEEREIQ[pY]APLSFHKG-NH2)
- Kd [1]: 0.00066 ± 0.00046 µM
- Kd [2]: 22 ± 20 µM
- binding to GRB2 / GRB2-SH2 (in words) [3]: poor binder
- competition of GRB2-SH2 by cell lysate (in words) [4]: already low concentrations of lysate show full competition
